Holding throughout (format): cell-based, Saccharomyces cerevisiae
The subject of assay [1] is active dry yeast “z”. Briefly: Individual nutritive elements added to normal gravity corn mash: fermentation rate and viable cell numbers. Here is the method:
Normal gravity corn mash was prepared using ground #2 yellow dent corn obtained from Commercial Alcohols Inc. (275 Bloomfield Road, Chatham, Ontario, Canada N7M 5J5). […] One part by weight of ground corn was dispersed into three parts of 50° C., sterile dH2O containing 1 mM CaCl2.2H2O. To minimize the development of excessive viscosity during gelatinization, 1.25 mL of high temperature (HT-2X) α-amylase such as was supplied by Alltech Inc. in Nicholasville, Ky., USA (HT-2X α-amylase is no longer available from Alltech), was added per litre of mash as the ground corn was dispersed. It should be noted that if Ca-independent alpha amylases are used such as Termamyl® SC supplied by Novozymes North America in Franklinton, N.C., USA, then the 1 mM CaCl2.2H2O is not required. Following the addition of the ground corn and a five-minute mixing period to produce a homogenous mixture, the temperature was increased until the mash reached 94° C. where it was held at this temperature for 60 min with continued stirring. The temperature of the gelatinized starch was then reduced to 80° C. and liquefied by a second dose of HT-2X αx-amylase (1.25 mL/L) with continued stirring for 30 min. Sterile Celstir® (Wheaton Scientific, Millville, N.J.) fermentor vessels were filled with 1 L aliquots of this mash. To each fermentor vessel, filter-sterilized (25 mm, 0.2 μm Acrodisc® syringe filter, Pall Corporation, Ann Arbor, Mich.) urea (Fisher Scientific, Co., NJ), was added to achieve a final concentration of 8 mM. Cold-sterilization of the mash was assured by the addition of 100 μL of diethyl pyrocarbonate (DEPC, Sigma Chemical Co.) per litre of mash mixing the mash mechanically (IKA-Labortechnik, Staufen, Germany) for 5-10 min followed by cooling the fermentor vessels at 4° C. cold room for ˜72 hrs. The fermentor vessels were then removed from the cold room, connected to 30° C. water bath circulators and mixed. Glucoamylase in the form of Allcholase II 400 supplied by Alltech Inc. was then added (1.5 mL/L mash) 30 min prior to yeast inoculation to initiate saccharification of the dextrins formed during gelatinization and liquefaction (it should be noted that Allcholase II 400 is no longer available and any glucoamylase may be used). The mash thus prepared contained 19-20 g of dissolved solids/100 mL of mash as determined by a digital density meter analyzer (model DMA-45, Anton Paar KG, Graz, Austria) maintained at 20° C.
Eleven grams of a commercially available active dry yeast, designated as “z”, were rehydrated by dispersal in 99 mL of preheated 38° C., 0.1% (w/v) sterile water and incubation for 20 min with periodic shaking in a 38° C. water bath. Fermentor vessels containing normal density corn mash were prepared as described above and inoculated with sufficient active yeast to provide an initial viable cell count of 1×10^7 cells per mL mash. The optimal fermentation temperature for the active dry yeast “z” was determined by conducting fermentations at 30°, 34°, 36°, 38°, and 40° C.
The effects of individual elements on yeast cell biomass production and fermentation in a fermentation feedstock were assessed by separately supplementing of corn mash with nitrogen, phosphorus, magnesium, sulphur and zinc. Nitrogen effects were assessed in corn mashes by the additions of urea to provide final concentrations in the mash of […]. Phosphorus effects were assessed in corn mashes amended with 16 mM urea, by the additions of (NH4)2HPO4 (BDH Chemicals Inc, Toronto, Ont., MW: 132.06) to provide final concentrations of 0, 0.1, 0.2, 0.4, 0.6, and 0.8 g of (NH4)2HPO4/L of mash. Magnesium effects were assessed in corn mashes amended with 16 mM urea, by the additions of MgSO4.7H2O (BDH Chemicals Inc., MW. 246.48) to provide final concentrations of 0, 0.025, 0.049, 0.074, 0.099, 0.148, 0.197 g of MgSO4.7H2O/L of mash. […]

The test system of assay [2] is active dry yeast “z”. Briefly: Fermentation performance of commercial active dry yeasts in normal gravity corn mash. To be noted: strain “z”. The procedure:
(§1) The effects of the defined urea plus salts-based yeast food on fermentation performance of seven commercial active dry yeasts currently used by the fuel alcohol industry (Bellisimi et al., 2005, Am. Soc. Brew. Chem. J. Vol. 63, pp. 107-112) and designated herein as strains “b”, “d”, “e”, “w”, “x”, “y”, and “z”, were assessed in normal gravity corn mash prepared as described in Example 1. The commercial active dry yeasts were assessed with the following corn mash supplanted as follows: (a) 8 mM urea (control), or (b) 1% yeast extract, or (c) 8 mM urea supplemented with the defined urea plus salts yeast food of the present invention. The fermentation methods were followed as outlined in Example 4. Fermentation rates were determined by repeated sampling and sample processing at specific time intervals as described in Example 1.

For a further assay, the system named is active dry yeast “w”. The assay is described as above. The note with it: strain “w”. Here is the method: as §1
For another assay, the system named is active dry yeast “e”. Described as above. To be noted: strain “e”. Here is the method:
as §1

The subject of a further assay is active dry yeast “x”. The description is as above. The note with it: strain “x”. Here is the method: as §1
Another assay concerns active dry yeast “b”. Described as above. The note with it: strain “b”. The procedure:
as §1

Another assay concerns active dry yeast “d”. The assay is described as above. The note with it: strain “d”. The procedure:
as §1

The subject of a further assay is active dry yeast “y”. The description is as above. To be noted: strain “y”. Here is the method:
as §1

Where [3] appears, read: complete disappearance of 20 g of dissolved solids/100 mL.

For the compound `NC(N)=O` [urea], in the assay with active dry yeast “z” [1] (corn mash with 8 mM and 16 mM urea), the “highest yeast cell counts” value was 3.3×10^8 CFU/mL. The “increase of cell numbers” value in the assay on active dry yeast “z” [1] (corn mash with 8 mM and 16 mM urea, versus no urea) was found to be 50%. The “increase of the rate of dissolved solids utilization” value in the assay with active dry yeast “z” [1] (urea 16-32 mM in corn mash, 30° C.) is “approximately 2 fold”. Also, the “urea supplementation rate at which the maximum fermentation rate was observed” value in the assay with active dry yeast “z” [1] (urea tested up to 32 mM) came out at 16 mM. In addition, the Fermentation rate stood at 0.79 ± 0.01 g/100 mL/hr with active dry yeast “z” [2] (normal gravity corn mash); 0.82 ± 0.02 g/100 mL/hr in the assay with active dry yeast “w” (normal gravity corn mash); 0.67 ± 0.01 g/100 mL/hr with active dry yeast “e” (normal gravity corn mash); 0.80 ± 0.06 g/100 mL/hr with active dry yeast “x” (normal gravity corn mash); 0.73 ± 0.04 g/100 mL/hr in the assay on active dry yeast “b” (normal gravity corn mash); 0.74 ± 0.03 g/100 mL/hr with active dry yeast “d” (normal gravity corn mash). Further, in the assay with active dry yeast “y” (normal gravity corn mash), the Fermentation rate came out at 0.83 ± 0.01 g/100 mL/hr. Moreover, the Fermentation time in the assay with active dry yeast “z” [2] (setting [3]) was 48 h; with active dry yeast “w” (setting [3]), 48 h; with active dry yeast “e” (setting [3]), 72 h; in the assay with active dry yeast “x” (setting [3]), 48 h; in the assay with active dry yeast “b” (setting [3]) it was 72 h; in the assay on active dry yeast “d” (setting [3]) it was 48 h. In the assay on active dry yeast “y” (setting [3]), this compound yielded a Fermentation time of 48 h.

Source of the values: US20070190628A1, “Yeast food composition for fuel ethanol production” (priority 2006, published 2007).
